Results reported in ChEMBL document CHEMBL1201862, “PubChem BioAssay data set” (2004).
Calls of active or inactive are those of the source.

Tests used:
[1] = biological target: NAD-dependent protein deacylase sirtuin-5, mitochondrial (Homo sapiens, UniProt Q9NXA8); experiment: SIRT5 desuccinylase inhibitors, dose response, biochemical, fluorescence imaging, cherry-pick, set 5 (AID 720591);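 also: desuccinylation of succinyl peptide AMC substrate read as fluorescence after trypsin release; potency of inhibitors that lower fluorescence and may act on trypsin instead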
Chain of NAD-dependent protein deacylase sirtuin-5, mitochondrial (Q9NXA8 whole entry): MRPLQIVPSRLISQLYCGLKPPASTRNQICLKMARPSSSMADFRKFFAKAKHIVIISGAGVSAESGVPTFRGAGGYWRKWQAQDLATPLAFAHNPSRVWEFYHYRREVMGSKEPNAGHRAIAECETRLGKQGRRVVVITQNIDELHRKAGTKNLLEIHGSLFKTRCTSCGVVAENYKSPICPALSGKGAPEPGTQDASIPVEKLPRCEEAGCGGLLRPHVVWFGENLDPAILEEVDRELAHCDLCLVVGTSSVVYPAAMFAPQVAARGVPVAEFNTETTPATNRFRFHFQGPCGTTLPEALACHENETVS

[2] = biological target: COUP transcription factor 2 (Homo sapiens, UniProt P24468); experiment: Luminescence-based cell-based high throughput dose response assay to identify inhibitors of COUP-TFII (NR2F2).; assay type: functional;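 also: HEK293 cells transiently cotransfected with COUP-TFII expression vector and reporter; luciferase reporter luminescence driven by COUP-TFII from the pX2-168 reporter plasmid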
Chain of COUP transcription factor 2 (P24468 whole entry): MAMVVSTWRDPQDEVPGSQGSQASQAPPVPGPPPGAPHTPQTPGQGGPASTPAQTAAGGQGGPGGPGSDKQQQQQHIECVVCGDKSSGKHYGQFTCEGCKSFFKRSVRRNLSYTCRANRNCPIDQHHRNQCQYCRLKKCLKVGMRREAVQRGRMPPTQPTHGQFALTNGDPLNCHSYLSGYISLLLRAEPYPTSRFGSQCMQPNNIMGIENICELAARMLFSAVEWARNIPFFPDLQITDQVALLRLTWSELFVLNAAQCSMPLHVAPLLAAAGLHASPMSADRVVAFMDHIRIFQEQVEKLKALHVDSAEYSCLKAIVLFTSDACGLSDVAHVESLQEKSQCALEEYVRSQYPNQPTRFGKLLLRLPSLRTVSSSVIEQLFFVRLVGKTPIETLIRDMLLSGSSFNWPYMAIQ

[3] = MC4R antagonists, dose response, counter-screen for LGR2 antagonist project, cell-based, plate reader, cherry pick (AID 743444); assay type: functional;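 also: transfected HEK 293 cells stimulated with alpha-MSH peptide; potency of inhibitors of the alpha-MSH evoked signal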
[4] = HepG2 cell cytotoxicity, dose response, cytotoxicity control, plate reader, cherry-pick, antagonist series (AID 743416); assay type: functional, cell-based
[5] = biological target: T1, Acyl-homoserine lactone acylase PvdQ (Pseudomonas aeruginosa (strain LESB58), UniProt Q9I194); experiment: P. aeruginosa PvdQ acylase inhibitors, dose response, biochemical, fluorescence, plate reader and imaging, cherry-picks (AID 493231)
T1 sequence (Q9I194 whole entry): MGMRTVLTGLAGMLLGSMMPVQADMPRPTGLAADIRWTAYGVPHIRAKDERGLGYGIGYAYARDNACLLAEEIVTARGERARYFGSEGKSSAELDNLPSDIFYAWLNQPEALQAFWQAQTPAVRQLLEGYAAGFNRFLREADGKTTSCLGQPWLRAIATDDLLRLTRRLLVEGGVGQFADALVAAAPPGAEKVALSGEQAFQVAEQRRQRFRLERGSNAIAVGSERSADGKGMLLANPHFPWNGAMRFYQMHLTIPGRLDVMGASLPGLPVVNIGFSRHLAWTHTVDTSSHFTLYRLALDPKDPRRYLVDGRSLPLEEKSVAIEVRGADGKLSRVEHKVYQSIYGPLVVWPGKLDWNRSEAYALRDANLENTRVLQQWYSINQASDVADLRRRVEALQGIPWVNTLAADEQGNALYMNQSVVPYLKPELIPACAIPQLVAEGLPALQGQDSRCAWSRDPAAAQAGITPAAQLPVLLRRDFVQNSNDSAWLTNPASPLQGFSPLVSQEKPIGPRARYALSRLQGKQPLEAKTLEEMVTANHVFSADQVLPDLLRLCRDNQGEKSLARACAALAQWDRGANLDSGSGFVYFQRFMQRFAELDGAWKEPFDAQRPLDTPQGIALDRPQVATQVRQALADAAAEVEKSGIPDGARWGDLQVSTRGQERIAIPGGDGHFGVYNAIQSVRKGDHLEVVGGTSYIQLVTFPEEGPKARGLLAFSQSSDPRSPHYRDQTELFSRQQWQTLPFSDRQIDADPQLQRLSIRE

[6] = cytotoxicity in HEK-293T cells, dose response, cytotoxicity control for TCR NF-kB inhibitor project, luminescence, T-cell screen hits (AID 489026); assay type: functional, cell-based;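 also: cells exposed to compound about 14 hours before the viability readout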
[7] = A549 cell cytotoxicity, dose response, cytotoxicity control, plate reader, cherry-pick, antagonist series (AID 743412); assay type: functional, cell-based
[8] = HEK293 cell cytotoxicity, dose response, cytotoxicity control, plate reader, cherry-picked samples (AID 743446); assay type: functional, cell-based
[9] = LGR2 antagonists, dose response, cell-based, HEK293, CRE-luciferase reporter, cherry pick, set 2 (AID 743343); assay type: functional;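 also: transfected cells were stimulated with diluted bursicon conditioned medium after compound addition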
[10] = biological target: T2, Heat shock factor protein 1 (Mus musculus, UniProt P38532); experiment: inhibition of MG132-induced HSE-luciferase signal, confirmation, cell-based, NIH3T3, luminescence, dose retest (AID 2382); assay type: functional;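 also: NIH3T3 fibroblasts with HSF1-driven luciferase reporter stressed by proteasome inhibitor MG132; luminescence from HSF1-driven luciferase expression after 8 hours of MG132 stress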
T2 sequence (P38532 whole entry): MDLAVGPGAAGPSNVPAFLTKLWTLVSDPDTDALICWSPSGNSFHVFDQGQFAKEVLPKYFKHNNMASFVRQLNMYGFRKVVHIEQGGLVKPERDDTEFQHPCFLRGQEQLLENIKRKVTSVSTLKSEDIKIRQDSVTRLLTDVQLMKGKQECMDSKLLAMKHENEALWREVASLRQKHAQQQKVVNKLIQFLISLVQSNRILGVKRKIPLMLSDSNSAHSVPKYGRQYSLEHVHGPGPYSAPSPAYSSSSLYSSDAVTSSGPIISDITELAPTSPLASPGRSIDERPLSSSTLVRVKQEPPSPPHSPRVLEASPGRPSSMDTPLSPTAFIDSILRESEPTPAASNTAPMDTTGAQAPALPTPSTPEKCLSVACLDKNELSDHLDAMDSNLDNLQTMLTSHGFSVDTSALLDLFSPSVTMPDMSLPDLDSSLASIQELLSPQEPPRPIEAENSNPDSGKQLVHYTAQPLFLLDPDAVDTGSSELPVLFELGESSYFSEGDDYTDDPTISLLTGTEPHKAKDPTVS

[11] = HEp-2 cell cytotoxicity, dose response, cytotoxicity control for RSV inhibitor project, HTS (AID 2410); assay type: functional; conditions: human respiratory syncytial virus

O=C(COc1ccc2c(c1)OCO2)Nc1ccc(Cl)cn1
AC50 [1]: > 30000 nM (inactive)

Cc1nnsc1NC(=O)OCc1ccc(C(C)(C)C)cc1
IC50 [2]: 10400 nM (inactive)

Cc1ccc2nc(-c3ccc4c(c3)OCCO4)cn2c1
AC50 [3]: 527 nM (active) | AC50 [4]: 2180 nM (active) | AC50 [5]: 1270 nM (active) | IC50 [6]: > 80000 nM (inactive) | AC50 [7]: 2560 nM (active) | AC50 [8]: 2210 nM (active) | AC50 [9]: 366 nM (active)

Cc1nc2c(-c3ccccc3)cnn2c(N)c1-c1ccccc1
IC50 [2]: > 9500 nM (active) | EC50 [10]: < 160 nM (active) | CC50 [11]: 17200 nM (active)
